Test results reported in ChEMBL document CHEMBL6074711, “Design, Synthesis, and Activity Evaluation of C-23-Modified 5-O-Mycaminosyltylonolide Derivatives” (ACS Med Chem Lett, 2024).

Assays:
Staphylococcus aureus [1] = assay: Antibacterial activity against Staphylococcus aureus ATCC25923 incubated for 16 to 20 hrs by broth microdilution method; assay type: functional; settings: time 16-20 hrs
Escherichia coli [2] = assay: Antibacterial activity against Escherichia coli ATCC25922 incubated for 16 to 20 hrs by broth microdilution method; assay type: functional; settings: time 16-20 hrs
Enterococcus faecalis [3] = assay: Antibacterial activity against Enterococcus faecalis ATCC29212 incubated for 16 to 20 hrs by broth microdilution method; assay type: functional; settings: time 16-20 hrs
[4] = tested on: Stenotrophomonas maltophilia; assay: Antibacterial activity against Stenotrophomonas maltophilia ATCC17808 incubated for 16 to 20 hrs by broth microdilution method; assay type: functional; settings: time 16-20 hrs
Staphylococcus aureus [5] = assay: Antibacterial activity against drug-resistant Staphylococcus aureus clinical isolate M20 incubated for 16 to 20 hrs by broth microdilution method; assay type: functional; settings: time 16-20 hrs
Escherichia coli [6] = assay: Antibacterial activity against drug-resistant Escherichia coli clinical isolate 1322 incubated for 16 to 20 hrs by broth microdilution method; assay type: functional; settings: time 16-20 hrs
Escherichia coli [7] = assay: Antibacterial activity against drug-resistant Escherichia coli clinical isolate 1333 incubated for 16 to 20 hrs by broth microdilution method; assay type: functional; settings: time 16-20 hrs
Staphylococcus aureus [8] = assay: Bactericidal activity against Staphylococcus aureus ATCC25923 incubated for 20 to 24 hrs; assay type: functional; settings: time 20-24 hrs
Staphylococcus aureus [9] = assay: Antibacterial activity against Staphylococcus aureus ATCC25923 incubated for 20 to 24 hrs; assay type: functional; settings: time 20-24 hrs
Staphylococcus aureus [10] = assay: Ratio of MBC to MIC for Staphylococcus aureus ATCC25923 incubated for 20 to 24 hrs; assay type: functional; settings: time 20-24 hrs
Enterococcus faecalis [11] = assay: Bactericidal activity against Enterococcus faecalis ATCC29212 incubated for 20 to 24 hrs; assay type: functional; settings: time 20-24 hrs
Enterococcus faecalis [12] = assay: Antibacterial activity against Enterococcus faecalis ATCC29212 incubated for 20 to 24 hrs; assay type: functional; settings: time 20-24 hrs
Enterococcus faecalis [13] = assay: Ratio of MBC to MIC for Enterococcus faecalis ATCC29212 incubated for 20 to 24 hrs; assay type: functional; settings: time 20-24 hrs
Escherichia coli [14] = assay: Bactericidal activity against Escherichia coli ATCC25922 incubated for 20 to 24 hrs; assay type: functional; settings: time 20-24 hrs
Escherichia coli [15] = assay: Antibacterial activity against Escherichia coli ATCC25922 incubated for 20 to 24 hrs; assay type: functional; settings: time 20-24 hrs
Escherichia coli [16] = assay: Ratio of MBC to MIC for Escherichia coli ATCC25922 incubated for 20 to 24 hrs; assay type: functional; settings: time 20-24 hrs
[17] = tested on: Stenotrophomonas maltophilia; assay: Bactericidal activity against Stenotrophomonas maltophilia ATCC17808 incubated for 20 to 24 hrs; assay type: functional; settings: time 20-24 hrs
[18] = tested on: Stenotrophomonas maltophilia; assay: Antibacterial activity against Stenotrophomonas maltophilia ATCC17808 incubated for 20 to 24 hrs; assay type: functional; settings: time 20-24 hrs
[19] = tested on: Stenotrophomonas maltophilia; assay: Ratio of MBC to MIC for Stenotrophomonas maltophilia ATCC17808 incubated for 20 to 24 hrs; assay type: functional; settings: time 20-24 hrs
Escherichia coli [20] = assay: Antibacterial activity against Escherichia coli ATCC25922 at pH 6.80; assay type: functional
Escherichia coli [21] = assay: Antibacterial activity against Escherichia coli ATCC25922 at pH 7; assay type: functional
Escherichia coli [22] = assay: Antibacterial activity against Escherichia coli ATCC25922 at pH 7.20; assay type: functional
Escherichia coli [23] = assay: Antibacterial activity against Escherichia coli ATCC25922 at pH 7.40; assay type: functional
Escherichia coli [24] = assay: Antibacterial activity against Escherichia coli ATCC25922 at pH 7.60; assay type: functional
Escherichia coli [25] = assay: Antibacterial activity against Escherichia coli ATCC25922 at pH 7.80; assay type: functional
Staphylococcus aureus [26] = assay: Antibacterial activity against Staphylococcus aureus ATCC25923 at pH 6.80; assay type: functional
Staphylococcus aureus [27] = assay: Antibacterial activity against Staphylococcus aureus ATCC25923 at pH 7; assay type: functional
Staphylococcus aureus [28] = assay: Antibacterial activity against Staphylococcus aureus ATCC25923 at pH 7.20; assay type: functional
Staphylococcus aureus [29] = assay: Antibacterial activity against Staphylococcus aureus ATCC25923 at pH 7.40; assay type: functional
Staphylococcus aureus [30] = assay: Antibacterial activity against Staphylococcus aureus ATCC25923 at pH 7.60; assay type: functional
Staphylococcus aureus [31] = assay: Antibacterial activity against Staphylococcus aureus ATCC25923 at pH 7.80; assay type: functional
Escherichia coli [32] = assay: Antibacterial activity against Escherichia coli ATCC25922 under 10^4 CFU/ml of bacterial inoculum culture by absorbance based assay; assay type: functional
Escherichia coli [33] = assay: Antibacterial activity against Escherichia coli ATCC25922 under 10^5 CFU/ml of bacterial inoculum culture by absorbance based assay; assay type: functional
Escherichia coli [34] = assay: Antibacterial activity against Escherichia coli ATCC25922 under 10^6 CFU/ml of bacterial inoculum culture by absorbance based assay; assay type: functional
Escherichia coli [35] = assay: Antibacterial activity against Escherichia coli ATCC25922 under 10^7 CFU/ml of bacterial inoculum culture by absorbance based assay; assay type: functional
Staphylococcus aureus [36] = assay: Antibacterial activity against Staphylococcus aureus ATCC25923 under 10^4 CFU/ml of bacterial inoculum culture by absorbance based assay; assay type: functional
Staphylococcus aureus [37] = assay: Antibacterial activity against Staphylococcus aureus ATCC25923 under 10^5 CFU/ml of bacterial inoculum culture by absorbance based assay; assay type: functional
Staphylococcus aureus [38] = assay: Antibacterial activity against Staphylococcus aureus ATCC25923 under 10^6 CFU/ml of bacterial inoculum culture by absorbance based assay; assay type: functional
Staphylococcus aureus [39] = assay: Antibacterial activity against Staphylococcus aureus ATCC25923 under 10^7 CFU/ml of bacterial inoculum culture by absorbance based assay; assay type: functional
Staphylococcus aureus [40] = assay: Bactericidal activity against Staphylococcus aureus ATCC25923 at MIC incubated for 10 to 12 hrs by time-kill assay relative to control; assay type: functional; settings: time 10-12 hrs
Escherichia coli [41] = assay: Bactericidal activity against Escherichia coli ATCC25922 at MIC incubated for 5 hrs by time-kill assay relative to control; assay type: functional
Staphylococcus aureus [42] = assay: Induction of resistance development in Staphylococcus aureus ATCC25923 at 0.5 times MIC treated daily with continuous passaging measured for 20 passages by absorbance based assay; assay type: functional, organism-based; settings: time 20.0 day
Staphylococcus aureus [43] = assay: Induction of resistance development in Staphylococcus aureus ATCC25923 treated daily with continuous passaging measured after 7 passages by absorbance based assay; assay type: functional; settings: ATCC25923, 168 h, time 7 day
Staphylococcus aureus [44] = assay: Induction of resistance development in Staphylococcus aureus ATCC25923 treated daily with continuous passaging measured after 13 passages by absorbance based assay; assay type: functional; settings: ATCC25923, 312 h, time 13 day
Escherichia coli [45] = assay: Induction of resistance development in Escherichia coli ATCC25922 treated daily with continuous passaging measured for 20 passages by absorbance based assay; assay type: functional, organism-based; settings: time 20.0 day
Escherichia coli [46] = assay: Induction of resistance development in Escherichia coli ATCC25922 treated daily with continuous passaging measured after 8 passages by absorbance based assay; assay type: functional; settings: ATCC25922, 192 h, time 8 day
Escherichia coli [47] = assay: Induction of resistance development in Escherichia coli ATCC25922 treated daily with continuous passaging measured after 12 passages by absorbance based assay; assay type: functional; settings: ATCC25922, 288 h, time 12 day
Escherichia coli [48] = assay: Induction of resistance development in Escherichia coli ATCC25922 treated daily with continuous passaging measured after 19 passages by absorbance based assay; assay type: functional; settings: ATCC25922, 456 h, time 19 day
[49] = Cytotoxicity against mouse HT-22 cells incubated for 72 hrs by MTT assay; assay type: toxicity, cell-based
[50] = Selectivity index, ratio of IC50 for mouse HT-22 cells to MIC for methicillin-resistant Staphylococcus aureus; assay type: toxicity, cell-based
[51] = Toxicity in Kunming mouse assessed as histopathological changes in heart at 80 mg/kg/day, IG measured for 1 week; assay type: organism-based; settings: in vivo, po, 168 h, time 1 weeks
[52] = Toxicity in Kunming mouse assessed as histopathological changes in liver at 80 mg/kg/day, IG measured for 1 week; assay type: organism-based; settings: in vivo, po, 168 h, time 1 weeks
[53] = Toxicity in Kunming mouse assessed as histopathological changes in spleen at 80 mg/kg/day, IG measured for 1 week; assay type: organism-based; settings: in vivo, po, 168 h, time 1 weeks
[54] = Toxicity in Kunming mouse assessed as histopathological changes in lung at 80 mg/kg/day, IG measured for 1 week; assay type: organism-based; settings: in vivo, po, 168 h, time 1 weeks
[55] = Toxicity in Kunming mouse assessed as histopathological changes in kidney at 80 mg/kg/day, IG measured for 1 week; assay type: organism-based; settings: in vivo, po, 168 h, time 1 weeks
Escherichia coli [56] = assay: Induction of resistance development in Escherichia coli ATCC25922 treated daily with continuous passaging measured after 5 passages by absorbance based assay; assay type: functional; settings: ATCC25922, 120 h, time 5 day
Escherichia coli [57] = assay: Induction of resistance development in Escherichia coli ATCC25922 treated daily with continuous passaging measured after 10 passages by absorbance based assay; assay type: functional; settings: ATCC25922, 240 h, time 10 day
Escherichia coli [58] = assay: Induction of resistance development in Escherichia coli ATCC25922 treated daily with continuous passaging measured after 14 passages by absorbance based assay; assay type: functional; settings: ATCC25922, 336 h, time 14 day

CC[C@H]1OC(=O)C[C@@H](O)[C@H](C)[C@@H](O[C@@H]2O[C@H](C)[C@@H](O)[C@H](N(C)C)[C@H]2O)[C@@H](CCN(C)Cc2cn(-c3cnc4ccccc4c3)nn2)C[C@@H](C)C(=O)/C=C/C(C)=C/[C@@H]1CNCc1cccc(C)c1
2: Ratio (Staphylococcus aureus [10])
100%: Activity (Staphylococcus aureus [40]) | Activity (Escherichia coli [41])
inactive: Activity (Staphylococcus aureus [42]) Not active; Compound Induced Resistance Less Rapidly Than That Of Control Drug Linezolid | Activity (Escherichia coli [45]) Not active; Compound Induced Resistance More Slowly Than Control Drug Florfenicol
130 mg/L: IC50 at 72 h [49]
0.5 mg/L: MIC (Staphylococcus aureus [1]) | MIC (Escherichia coli [2]) | MIC (Staphylococcus aureus [5]) | MIC (Escherichia coli [6]) | MIC (Staphylococcus aureus [9]) | MIC (Escherichia coli [20]) | MIC (Escherichia coli [21]) | MIC (Escherichia coli [22]) | MIC (Staphylococcus aureus [27]) | MIC (Staphylococcus aureus [28]) | MIC (Staphylococcus aureus [29]) | MIC (Escherichia coli [34]) | MIC (Escherichia coli [35]) | MIC (Staphylococcus aureus [39])
0.25 mg/L: MIC (Escherichia coli [23]) | MIC (Staphylococcus aureus [30]) | MIC (Escherichia coli [33]) | MIC (Staphylococcus aureus [37]) | MIC (Staphylococcus aureus [38])
4 mg/L: MBC (Escherichia coli [14]) | MIC (Escherichia coli [48])
Non-toxic: Activity [51] | Activity [52] | Activity [53] | Activity [54] | Activity [55]
8: Ratio [19]
4: Ratio (Enterococcus faecalis [13]) | Ratio (Escherichia coli [16])
2 mg/L: MIC [4] | MBC (Staphylococcus aureus [8]) | MIC (Staphylococcus aureus [44]) | MIC (Escherichia coli [47])
130: selectivity ratio [50]
8 mg/L: MBC (Enterococcus faecalis [11]) | MBC [17]
0.125 mg/L: MIC (Escherichia coli [24]) | MIC (Escherichia coli [25]) | MIC (Staphylococcus aureus [31]) | MIC (Escherichia coli [32]) | MIC (Staphylococcus aureus [36])
1 mg/L: MIC (Enterococcus faecalis [3]) | MIC (Escherichia coli [7]) | MIC (Enterococcus faecalis [12]) | MIC (Escherichia coli [15]) | MIC [18] | MIC (Staphylococcus aureus [26]) | MIC (Staphylococcus aureus [43]) | MIC (Escherichia coli [46])

CS(=O)(=O)c1ccc([C@@H](O)[C@@H](CF)NC(=O)C(Cl)Cl)cc1 [FLORFENICOL]
32 mg/L: MIC (Escherichia coli [58])
8 mg/L: MIC (Escherichia coli [56])
16 mg/L: MIC (Escherichia coli [57])
